Assay results published in ChEMBL document CHEMBL2434826, “Multifunctional tacrine-flavonoid hybrids with cholinergic, β-amyloid-reducing, and metal chelating properties for the treatment of Alzheimer's disease” (Eur J Med Chem, 2013).
The source made the active and inactive calls. The rule behind the calls is not given here.

Key:
[1] = biological target: T1, Amyloid-beta precursor protein (Homo sapiens, UniProt P05067); test: Inhibition of amyloid beta (1 to 42) (unknown origin) self-induced aggregation at 20 uM after 48 hrs by thioflavin T fluorescence assay relative to control
T1 sequence (P05067 whole entry): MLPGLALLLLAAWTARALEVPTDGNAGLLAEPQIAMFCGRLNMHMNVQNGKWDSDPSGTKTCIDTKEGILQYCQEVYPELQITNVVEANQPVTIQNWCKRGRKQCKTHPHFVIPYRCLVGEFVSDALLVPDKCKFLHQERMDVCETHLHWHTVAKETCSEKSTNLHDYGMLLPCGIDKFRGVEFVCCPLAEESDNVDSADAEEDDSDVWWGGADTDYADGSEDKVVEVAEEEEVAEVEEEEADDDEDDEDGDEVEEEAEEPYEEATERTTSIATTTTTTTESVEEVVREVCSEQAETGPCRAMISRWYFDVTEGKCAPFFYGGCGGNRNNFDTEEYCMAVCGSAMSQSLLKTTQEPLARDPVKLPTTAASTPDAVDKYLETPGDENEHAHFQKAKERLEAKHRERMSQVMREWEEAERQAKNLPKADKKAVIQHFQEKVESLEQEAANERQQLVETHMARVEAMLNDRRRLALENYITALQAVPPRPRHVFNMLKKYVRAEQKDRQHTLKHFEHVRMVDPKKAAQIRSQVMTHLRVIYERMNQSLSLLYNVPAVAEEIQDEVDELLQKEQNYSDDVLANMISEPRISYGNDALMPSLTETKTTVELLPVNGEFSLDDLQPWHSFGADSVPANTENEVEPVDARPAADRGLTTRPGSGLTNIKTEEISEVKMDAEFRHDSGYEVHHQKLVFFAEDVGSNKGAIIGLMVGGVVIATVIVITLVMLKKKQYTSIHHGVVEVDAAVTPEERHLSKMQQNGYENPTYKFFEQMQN

[2] = biological target: Cholinesterase (Equus caballus, UniProt P81908)
Sequence of Cholinesterase (P81908 whole entry): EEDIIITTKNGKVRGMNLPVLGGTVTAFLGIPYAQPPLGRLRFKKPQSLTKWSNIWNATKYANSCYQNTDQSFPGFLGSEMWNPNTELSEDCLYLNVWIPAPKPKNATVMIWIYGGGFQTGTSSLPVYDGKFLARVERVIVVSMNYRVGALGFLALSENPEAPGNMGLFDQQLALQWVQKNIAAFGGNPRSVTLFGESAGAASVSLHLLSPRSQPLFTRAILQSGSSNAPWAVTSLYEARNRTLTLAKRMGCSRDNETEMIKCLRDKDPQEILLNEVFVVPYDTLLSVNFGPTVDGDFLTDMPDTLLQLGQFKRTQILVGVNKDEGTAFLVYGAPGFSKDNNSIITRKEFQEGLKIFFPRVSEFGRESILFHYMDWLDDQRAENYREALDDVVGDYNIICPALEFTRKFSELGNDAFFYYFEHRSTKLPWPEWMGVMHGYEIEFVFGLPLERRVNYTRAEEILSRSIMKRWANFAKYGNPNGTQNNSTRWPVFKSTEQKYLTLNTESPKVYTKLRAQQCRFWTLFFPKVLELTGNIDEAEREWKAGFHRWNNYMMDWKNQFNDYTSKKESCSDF
Description: Inhibition of equine serum BuChE using S-butyrylcholinesterase iodide as substrate preincubated for 6 mins followed by substrate addition by Ellmans method

[3] = biological target: Acetylcholinesterase (Electrophorus electricus, UniProt O42275)
Sequence of Acetylcholinesterase (O42275 whole entry): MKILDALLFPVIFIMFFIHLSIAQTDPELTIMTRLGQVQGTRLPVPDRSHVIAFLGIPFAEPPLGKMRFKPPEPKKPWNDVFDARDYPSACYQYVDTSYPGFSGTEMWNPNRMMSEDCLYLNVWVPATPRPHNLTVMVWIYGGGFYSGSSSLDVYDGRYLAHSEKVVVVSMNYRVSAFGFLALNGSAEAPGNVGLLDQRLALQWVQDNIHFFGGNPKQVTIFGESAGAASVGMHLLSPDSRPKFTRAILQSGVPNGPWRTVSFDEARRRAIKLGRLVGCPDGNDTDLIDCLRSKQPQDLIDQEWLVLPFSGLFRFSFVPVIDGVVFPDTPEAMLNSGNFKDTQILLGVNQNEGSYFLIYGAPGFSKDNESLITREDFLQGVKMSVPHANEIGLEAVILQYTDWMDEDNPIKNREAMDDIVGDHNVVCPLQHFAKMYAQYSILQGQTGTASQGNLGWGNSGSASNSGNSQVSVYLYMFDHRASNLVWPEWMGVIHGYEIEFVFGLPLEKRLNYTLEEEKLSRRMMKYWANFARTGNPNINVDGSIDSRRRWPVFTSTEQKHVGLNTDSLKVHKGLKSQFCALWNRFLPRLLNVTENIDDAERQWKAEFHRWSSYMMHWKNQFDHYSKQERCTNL
Description: Inhibition of electric eel AChE using acetylthiocholine iodide as substrate preincubated for 6 mins followed by substrate addition by Ellmans method

[4] = tested on: Radical scavenging activity; test: Antioxidant activity assessed as DPPH radical scavenging activity at 2 mM relative to control; type: functional
[5] = biological target: T1, Amyloid-beta precursor protein
Description: Inhibition of amyloid beta (1 to 42) (unknown origin) self-induced aggregation after 48 hrs by thioflavin T fluorescence assay

[6] = biological target: Cholinesterase (Equus caballus) (UniProt P81908); test: Competitive inhibition of equine serum BuChE using […] as substrate at 22.5 to 90 nM by Lineweaver-Burk plot analysis
Sequence of Cholinesterase (Equus caballus) (P81908 whole entry): as the sequence (P81908 whole entry) above

[7] = biological target: Acetylcholinesterase (Electrophorus electricus) (UniProt O42275); conditions: 7.7 to 30.8 nM
Sequence of Acetylcholinesterase (Electrophorus electricus) (O42275 24-633 limits assumed): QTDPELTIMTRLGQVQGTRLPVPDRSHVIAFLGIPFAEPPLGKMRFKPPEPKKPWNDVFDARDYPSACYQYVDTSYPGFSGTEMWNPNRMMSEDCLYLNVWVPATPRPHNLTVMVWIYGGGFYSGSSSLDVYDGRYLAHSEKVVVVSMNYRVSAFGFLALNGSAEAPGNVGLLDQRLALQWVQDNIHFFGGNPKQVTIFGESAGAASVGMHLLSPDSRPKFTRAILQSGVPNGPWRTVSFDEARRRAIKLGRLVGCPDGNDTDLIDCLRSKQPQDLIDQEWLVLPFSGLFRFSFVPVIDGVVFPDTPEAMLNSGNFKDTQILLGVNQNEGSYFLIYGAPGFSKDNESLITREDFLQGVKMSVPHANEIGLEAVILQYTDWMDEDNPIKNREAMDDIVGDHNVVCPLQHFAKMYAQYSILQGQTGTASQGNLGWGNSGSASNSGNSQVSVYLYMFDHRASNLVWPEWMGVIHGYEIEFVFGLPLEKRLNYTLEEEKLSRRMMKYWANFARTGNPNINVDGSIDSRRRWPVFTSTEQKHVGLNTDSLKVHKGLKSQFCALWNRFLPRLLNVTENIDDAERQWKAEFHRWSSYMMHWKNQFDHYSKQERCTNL

[8] = biological target: Acetylcholinesterase (Electrophorus electricus) (UniProt O42275); test: Potency index, ratio of tacrine IC50 to compound IC50 for electric eel AChE
[9] = biological target: Acetylcholinesterase (Electrophorus electricus) (UniProt O42275); test: Potency index, ratio of galanthamine IC50 to compound IC50 for electric eel AChE
[10] = biological target: Cholinesterase (Equus caballus) (UniProt P81908); test: Potency index, ratio of tacrine IC50 to compound IC50 for equine serum BuChE
[11] = biological target: Cholinesterase (Equus caballus) (UniProt P81908); test: Potency index, ratio of galanthamine IC50 to compound IC50 for equine serum BuChE
[12] = Cytotoxicity against human SH-SY5Y cells assessed as survival at 25 uM after 24 hrs by MTT assay relative to control; type: cell-based; conditions: read-out: Survival
[13] = Cytotoxicity against human SH-SY5Y cells assessed as survival at 50 uM after 24 hrs by MTT assay relative to control; type: cell-based; conditions: read-out: Survival
[14] = Cytotoxicity against human SH-SY5Y cells assessed as survival at 5 uM after 24 hrs by MTT assay relative to control; type: cell-based; conditions: read-out: Survival
[15] = Cytotoxicity against human SH-SY5Y cells assessed as survival at 10 uM after 24 hrs by MTT assay relative to control; type: cell-based; conditions: read-out: Survival
[16] = Cytotoxicity against human SH-SY5Y cells assessed as survival at 1 uM after 24 hrs by MTT assay relative to control; type: cell-based; conditions: read-out: Survival
[17] = Metal chelating activity of the compound assessed as Cu2+-complex formation in methanol at 25 uM by UV-vis spectrophotometric analysis; type: functional
[18] = Metal chelating activity of the compound assessed as Fe2+-complex formation in methanol at 25 uM by UV-vis spectrophotometric analysis; type: functional

Row | SMILES | inhibition [1] | IC50 [2] | IC50 [3] | Activity [4] | IC50 [5] | also measured
1 | O=c1cc(-c2ccccc2)oc2cc(O)ccc12 [7-HYDROXYFLAVONE] | 27.2% | > 100000 nM | 85000 nM | – | – | –
2 | O=c1cc(-c2ccccc2)oc2cc(OCCCN3CCN(CCCNc4c5c(nc6ccccc46)CCCC5)CC3)ccc12 | 58% | 208 nM | 153 nM | < 36% | 14900 nM | –
3 | O=c1cc(-c2ccccc2)oc2cc(OCCCCCCN3CCN(CCNc4c5c(nc6ccccc46)CCCC5)CC3)ccc12 | 63.3% | 289 nM | 717 nM | < 36% | 14200 nM | –
4 | O=c1ccoc2cc(OCCCN3CCN(CCCNc4c5c(nc6ccccc46)CCCC5)CC3)cc(O)c12 | 85.3% | 45 nM | 15.4 nM | < 36% | 4800 nM | inhibition [6]: Active; inhibition [7]: Active
5 | Nc1ccc(-c2cc(=O)c3ccc(OCCCN4CCN(CCCNc5c6c(nc7ccccc57)CCCC6)CC4)cc3o2)cc1 | 9% | 685 nM | 336 nM | < 36% | – | –
6 | O=c1cc(-c2ccccc2)oc2cc(OCCCN3CCN(CCNc4c5c(nc6ccccc46)CCCC5)CC3)ccc12 | 59.1% | 311 nM | 624 nM | < 36% | 13700 nM | –
7 | COc1cc(OCCCN2CCN(CCCNc3c4c(nc5ccccc35)CCCC4)CC2)cc2occc(=O)c12 | 62% | 35 nM | 8.4 nM | < 36% | 12600 nM | Ratio IC50 [8]: 31; Ratio IC50 [9]: 318
8 | O=c1cc(-c2ccc([N+](=O)[O-])cc2)oc2cc(OCCCN3CCN(CCCNc4c5c(nc6ccccc46)CCCC5)CC3)ccc12 | 61.1% | 460 nM | 75 nM | < 36% | 14100 nM | –
9 | O=c1ccoc2cc(OCCCN3CCN(CCCNc4c5c(nc6ccccc46)CCCC5)CC3)ccc12 | 67.4% | 25.8 nM | 10.3 nM | < 36% | 11500 nM | Ratio IC50 [10]: 2; Ratio IC50 [11]: 508
10 | O=c1cc(-c2ccccc2)oc2cc(OCCN3CCN(CCCNc4c5c(nc6ccccc46)CCCC5)CC3)ccc12 | 70% | 266 nM | 416 nM | < 36% | 9800 nM | –
11 | O=c1cc(-c2ccccc2)oc2cc(OCCCN3CCN(CCCNc4c5c(nc6ccccc46)CCCC5)CC3)cc(O)c12 | 79.1% | 558 nM | 133 nM | < 36% | 6500 nM | viability at 24 h, 25 µM [12]: 92.7%; viability at 24 h, 50 µM [13]: 90.1%; viability at 24 h, 5 µM [14]: 96.5%; viability at 24 h, 10 µM [15]: 94.4%; viability at 24 h, 1 µM [16]: 97.3%; Activity [17]: Active; Activity [18]: Active
12 | COc1cc(OCCCN2CCN(CCCNc3c4c(nc5ccccc35)CCCC4)CC2)cc2oc(-c3ccccc3)cc(=O)c12 | 68.7% | 360 nM | 57.7 nM | < 36% | 9600 nM | –
13 | O=c1cc(-c2ccccc2)oc2cc(OCCCCCN3CCN(CCNc4c5c(nc6ccccc46)CCCC5)CC3)ccc12 | 65.4% | 258 nM | 568 nM | < 36% | 12800 nM | –
14 | COc1ccc(-c2cc(=O)c3ccc(OCCCN4CCN(CCCNc5c6c(nc7ccccc57)CCCC6)CC4)cc3o2)cc1 | 10.9% | 655 nM | 417 nM | < 36% | – | –
15 | O=c1cc(-c2ccccc2)oc2cc(OCCCCN3CCN(CCNc4c5c(nc6ccccc46)CCCC5)CC3)ccc12 | 53.7% | 197 nM | 268 nM | < 36% | 16400 nM | –
16 | O=c1cc(-c2ccccc2)oc2cc(OCCCCCN3CCN(CCCNc4c5c(nc6ccccc46)CCCC5)CC3)ccc12 | 62.5% | 423 nM | 594 nM | < 36% | 13200 nM | –
17 | O=c1cc(-c2ccc(Cl)cc2)oc2cc(OCCCN3CCN(CCCNc4c5c(nc6ccccc46)CCCC5)CC3)ccc12 | 48.9% | 994 nM | 40.1 nM | < 36% | – | –
18 | O=c1cc(-c2ccccc2)oc2cc(OCCCCCCN3CCN(CCCNc4c5c(nc6ccccc46)CCCC5)CC3)ccc12 | 63% | 414 nM | 848 nM | < 36% | 13500 nM | –
19 | CN(C)c1ccc(-c2cc(=O)c3ccc(OCCCN4CCN(CCCNc5c6c(nc7ccccc57)CCCC6)CC4)cc3o2)cc1 | 12.2% | 845 nM | 230 nM | < 36% | – | –
20 | O=c1cc(-c2ccccc2)oc2cc(OCCCCN3CCN(CCCNc4c5c(nc6ccccc46)CCCC5)CC3)ccc12 | 53.4% | 317 nM | 547 nM | < 36% | 17300 nM | –
21 | O=c1cc(-c2ccccc2)oc2cc(OCCN3CCN(CCNc4c5c(nc6ccccc46)CCCC5)CC3)ccc12 | 54.1% | 520 nM | 481 nM | < 36% | 16800 nM | –
22 | Cc1ccc(-c2cc(=O)c3ccc(OCCCN4CCN(CCCNc5c6c(nc7ccccc57)CCCC6)CC4)cc3o2)cc1 | 13.4% | 573 nM | 316 nM | < 36% | – | –
